Assay results published in patent publication US20190247396A1, “DENTAL TREATMENT” (KING'S COLLEGE LONDON, priority 2016, published 2019).
“Also recorded” adds a separate entry of the source.

Key:
[1] = tested on: Axin2 (Wnt activity) in 171A4 mouse dental pulp cells; test: In vitro drug release from Kolspon sponge, Axin2 qPCR; type: cell-based; details: for Wnt activity (Axin2 qPCR): drug in collagen sponge incubated with cells, 50 nM BIO, 50 nM Tideglusib, vs media or sponge without drug
Procedure: In vitro drug release from Kolspon sponge was tested. 171A4 cells were plated in 24-well plates and incubated (37° C., 5% CO2/95% air, 100% humidity) for 24 h using standard culture medium. Falcon™ cell culture inserts for use with 24-well plates ([…]) were placed in the wells carrying 96 mm^2 Kolspon cubes either dry or soaked in 30 μl of the drug optimal concentration for 15 and 30 minutes, 1, 6, and 12 hours. The cells were collected with TRIzol and stored at −20° C.
RNA was extracted from the cells using TRIzol (Thermo Fisher Scientific) as recommended by the manufacturer. RNA was quantified using Nanodrop and reverse transcribed into cDNA. Beta-actin was used as housekeeping gene (Forward-[…] (SEQ ID NO 1), Reverse-[…]) (SEQ ID NO 2) and Axin2 for Wnt activity (Forward-[…] (SEQ ID NO 3), Reverse- TGCCCACACTAGGCTGACA (SEQ ID NO 4).

[2] = tested on: Axin2 (Wnt activity) in dental pulp cells; test: Induction of Axin2 in vivo, pulp exposure injury model, qPCR of pulp cells; parameters: species or system mouse; details: one day after injury and capping; vs control, MTA or collagen sponge
Procedure: A glass ionomer cement was used to cover the sponge and protect the tooth (FIG. 2G). Specifically, a layer of 3M Ketac-Cem Radiopaque was used as a capping material to seal the injured site. The injury was performed on the two upper first molars. Post-op the mice were given Vetergesic (Buprenorphine—Ceva) at the rate of 0.3 mg/kg intraperitonially as analgesic. The animals were sacrificed after 1 day.
Treated teeth were removed after 24 h along with controls consisting of untreated teeth, MTA only and collagen sponge with no inhibitor.
Molars were extracted using a 21G needle as an elevator to lift them from the alveolar bone and kept in ice cold PBS. Using a 23 scalpel blade the molars were separated at the crown-root junction, so that the pulp chamber could be visualized. Using a 0.6 mm straight tip tweezer the pulp was gently scraped from the pulp chamber and the root canal. The pulp was then placed into cold Sigma RNAlater and stored at −80° C.
The extracted cells were tested for expression of Axin2 by qPCR as described in Example 1 (FIG. 1E). Expression of Axin2 was 3× higher in inhibitor treated pulp cells when compared to controls (FIG. 1E).

[3] = tested on: mouse maxillary first molars; test: Reparative dentine formation after pulp exposure, micro-CT mineral analysis; type: in vivo
Procedure: T filled with mineral=0.0017 mg.

[4] = tested on: mouse maxillary first molars; details: in vivo
Procedure: (§3) To test the induction of Axin2 in vivo, an injury model was developed. Mice were anaesthetized with a solution of Hypnorm (Fentanyl/fluanisone—VetaPharma Ltd.), water and Hypnovel (Midazolam—Roche) in the ratio 1:2:1 at 10 ml/kg by an intraperitoneal injection. Experimental tooth damage was created by drilling and making 0.13 mm holes in mouse maxillary first molars to expose the pulp. A rounded carbide bur FG ¼ coupled to a high speed hand piece was used to access the dentine. Once the bur cut exposed the dentine, a 30G needle was used to penetrate the pulp.
(§4) In order to protect the pulp from external contamination and stimulate dentine repair, the injury was capped either with ProRoot Mineral Trioxide Aggregate (MTA) (Maillfer Dentsply), or Kolspon (Fish Collage Type 1—Eucare Ltd) alone, or in association with 50 nM BIO (SIGMA), 5 μM CHIR99021 (SIGMA), or 50 nM Tideglusib (SIGMA) dissolved and diluted in DMSO, in contact with the pulp. Pieces of Kolspon were cut to size and soaked in solutions of the three inhibitors before being physically placed into the holes, in contact with the pulp.
(§5) The model described in Example 2 was then used to examine the effect on the formation of reparative dentine. Molars were drilled and sponges inserted and left as described in Example 2, this time for 4-6 weeks before the mice were sacrificed.
(§6) After 4 weeks decalcification in 19% EDTA the teeth were embedded in wax blocks and sectioned using 0.8 μm thickness. Sections were stained using Masson's Trichrome to reveal new dentine formation.

[5] = tested on: human deciduous tooth dental pulp cells; details: cited from earlier work
[6] = tested on: mouse maxillary first molars; test: Reparative dentine formation after pulp exposure, Masson's Trichrome histology
Procedure: as §3, §4, §5, §6

[7] = tested on: mouse maxillary first molars; test: Reactionary dentine formation, non-exposed pulp injury model, Masson's Trichrome histology; details: for Structure of reactionary dentine (histology): 4 weeks after injury without pulp exposure
Procedure: (§1) To investigate the effect of modulation of Wnt signaling on reactionary dentine formation, a reproducible tooth damage model was established. 6 weeks old, Axin2^−CreERT2; Rosa26−mTmG (fl/+) and GPR1777(Wntless)^−pCAGCreERT2 (fl/fl) mice were injected intraperitoneally with three doses of tamoxifen (2 mg per 30 g mouse, SIGMA), one dose a day. 5 days after the last tamoxifen injection, the height of the middle cusp of mouse maxillary first molars were reduced without exposing the dental pulp, leaving a band of dentine to protect the inner pulp tissue (FIG. 5).
The exposed dentine was capped either with calcium hydroxide (Dycal; Dentsply) or mineral trioxide aggregate (MTA) (ProRoot MTA; Dentsply), or dry collagen sponge (Kolspon-Fish Collage Type 1; Eucare Ltd), or collagen sponge soaked in dimethyl sulfoxide (DMSO; SIGMA), or 50 nM Tideglusib, or 1 μM LY2157299, or 1 μM Dorsomorphin. All drugs were dissolved and diluted in DMSO. A layer of glass ionomer cement (Ketac-Cem Radiopaque; 3M ESPE) was used as a sealing material. Vetergesic (Buprenorphine—Ceva) was injected to all mice post-operative at the rate of 0.3 mg/kg by intraperitoneal injection as analgesic. The animals were sacrificed after 1 day and 4 weeks. A total of 14 genetically-modified mice (28 damaged molars) and 26 CD1 mice (52 molars) were used.
After 4 weeks decalcification in 19% EDTA pH 6, the teeth were embedded in wax blocks and sectioned at 8 μm thickness. Sections were histologically stained using Masson's Trichrome.
Sequestered latent BMP and TGF-β proteins present in the dentine matrix have been implicated in tertiary dentine formation following damage, mainly based on results obtained from in vitro experiments. The effect of inhibition of these signalling pathways in was investigated in the in vivo model of reactionary dentine formation described in Example 5 by utilising small molecules to inhibit these signalling pathways. The small molecule LY2157299 is a TGF-β type I receptor kinase inhibitor and the small molecule Dorsomorphin is an inhibitor of BMP type I receptors ALK2, ALK3 and ALK6 (Bhola et al. 2013, Yu et al. 2008). Both compounds were first tested for cytotoxicity and effectiveness of signalling pathway blocking in vitro using 17IA4 cells. The first upper molars of CD1 mice were damaged to stimulate reactionary dentine formation and a collagen sponge was soaked in either 1 μM LY2157299 or 1 μM Dorsomorphin was used as a delivery vehicle. The sponges were placed on the exposed dentine and sealed with a layer of glass ionomer.

[8] = tested on: Axin2 (Wnt activity) in dental pulp; test: Axin2 qPCR of dental pulp one day after dentine injury without pulp exposure; type: in vivo, mouse
Procedure: All drugs were dissolved and diluted in DMSO.
(§2) Since Wnt/β-catenin signaling is required for reparative dentine formation we investigated if this pathway plays a role in reactionary dentine formation. The small molecule GSK3 antagonist Tideglusib was delivered on collagen sponges at the site of damage and sealed with glass ionomer. Sponge alone and MTA sealed with glass ionomer were used as controls. To identify whether cells responded to the drug, TCF/Lef:H2B-GFP, Axin2^−CreERT2; Rosa26−mTmG flox/+ and CD1 wild type mice were used. TCF/Lef:H2B-GFP reporter mice allowed the visualisation of Wnt active cells (ie. Cells receiving a Wnt signal), Axin2^−CreERT2; Rosa26−mTmG flox/+ mice were used to lineage trace Axin2-expressing cells and gene expression analysis via qPCR (as described in Example 1) was performed on pulp cells from CD1 mouse molars. The first molars of genetically modified mice were collected 1 day after the injury and immunohistochemistry was performed. Deparaffinised sections were retrieved with sodium citrate (pH 6) and incubated with chicken polyclonal anti-GFP antibody (1:500; Abcam, Cambridge, Mass., USA; ab13970) overnight at 4° C. Sections were washed and exposed to appropriate biotinylated secondary antibody, then horseradish peroxidase (HRP)-conjugated streptavidin-biotin antibody and washed with PBST. […]

[9] = tested on: TCF/Lef:H2B-GFP and Axin2-CreERT2 Wnt responsive cells; test: GFP immunohistochemistry of Wnt responsive cells in reporter mice 1 day after injury; type: in vivo, mouse
Excerpt: as §2, with “PBST. Immunoreactivity was visualized with MenaPath green chromogen kit (Bio SB).” for “PBST.”

[10] = tested on: mouse maxillary first molars; test: Reactionary dentine formation, non-exposed pulp injury model, micro-CT mineral content and linear measurement; type: in vivo; details: 50 nM, 4 weeks
Procedure: as §1
The exposed dentine was capped either with calcium hydroxide (Dycal; Dentsply) or mineral trioxide aggregate (MTA) (ProRoot MTA; Dentsply), or dry collagen sponge (Kolspon-Fish Collage Type 1; Eucare Ltd), or collagen sponge soaked in dimethyl sulfoxide (DMSO; SIGMA), or 50 nM Tideglusib, or 1 μM LY2157299, or 1 μM Dorsomorphin. All drugs were dissolved and diluted in DMSO. […]
Mice upper molars were dissected, fixed in 4% paraformaldehyde (PFA) for 24-hours at 4° C. and scanned using a Bruker Skyscan1272 micro-CT (pCT) scanner. […] The dentine thickness was measured using the “Line” function of the software. For the dentine thickness-analysis the distance between the center of the roof of the middle pulp horn and the floor of the injured dentine margin was measured. […] The region measured comprised only the site of injury. […]

O=C1Nc2cc(Br)ccc2/C1=C1/Nc2ccccc2/C1=N\O [BIO, 6-bromoindirubin-3′-oxime]
BIO induction of Axin2 expression relative to CHIR99021 and Tideglusib ([1]; FIG. 1D): 4 ×
Wnt activity (Axin2 qPCR) [1]: Wnt activity increases after 30 minutes of incubation and remains elevated
Wnt activity / Axin2 expression (qPCR) in dental pulp cells [2]: significant upregulation of Wnt activity
MicroCT appearance of injury site ([3]; 4 weeks): mature mineral at the injury site
MicroCT appearance of injury site ([3]; 6 weeks): injury site filled with mature dentine
Pulp vitality [4]: dental pulp remained vital
Differentiation state of dental pulp cells [5]: maintain human deciduous tooth dental pulp cells in the undifferentiated state
Proliferation of dental pulp cells [5]: reduce proliferation
Histology of reparative dentine formation ([6]; 4 weeks): dense dentine formation at the injury site with vital pulp
Histology of reparative dentine formation ([6]; 6 weeks): filled the whole injury site from occlusal to pulp chamber roof; also recorded: new mature dentine formed where the sponge was placed filling the injury site

Cc1cccc(-c2nn3c(c2-c2ccnc4ccc(C(N)=O)cc24)CCC3)n1 [LY2157299]
Structure of reactionary dentine (histology) [7]: disorganised (globular) dentine; also recorded: atypical globular dentine without tubular reactionary dentine features

O=c1sn(-c2cccc3ccccc23)c(=O)n1Cc1ccccc1 [Tideglusib, 4-Benzyl-2—(naphthalen-1-yl)-[1,2,4]thiadiazolidine-3,5-dione]
Wnt activity (Axin2 qPCR) [1]: Wnt activity increases after 30 minutes of incubation and remains elevated
Wnt activity / Axin2 expression (qPCR) in dental pulp cells [2]: significant upregulation of Wnt activity
MicroCT appearance of injury site ([3]; 4 weeks): mature mineral at the injury site
MicroCT appearance of injury site ([3]; 6 weeks): mature reparative dentine formed at the injury site almost at the same Radiopacity as the primary/secondary dentine
Amount of reactionary dentine formation (histology) compared with controls ([7]; 50 nM in collagen sponge, 4 weeks): larger reactionary dentine secretion; also recorded: enhanced reactionary dentine formation
Structure of reactionary dentine (histology) [7]: normal tubular reactionary dentine formation
Pulp / tooth vitality ([7]; mouse, in vivo): dental pulp remained vital
Wnt activity / early-response Axin2 expression (qPCR) ([8]; 1 day after injury without pulp exposure): significant upregulation of Wnt activity
Axin2 expression compared to controls ([8]; 1 day after injury, FIG. 8E): 2 fold
Axin2+ (GFP-positive) cells in the dental pulp ([9]; Axin2-CreERT2, Rosa26-mTmG mice, vs collagen sponge only): increase of TCF/LEF+cells and Axin2+ cells; also recorded: more GFP-positive cells
Wnt responsive (TCF/LEF+, GFP) cells under the injury ([9]; TCF/Lef:H2B-GFP reporter mice, vs collagen sponge alone): increase of TCF/LEF+cells; also recorded: increased local response to Wnt signalling
Mineral band thickness at the site of injury (linear measurement) vs collagen sponge alone ([10]; FIG. 9E): thicker mineral band
Mineral content under the injury site (micro-CT) ([10]; vs collagen sponge alone, FIG. 9D): high mineral content; also recorded: increase of mature mineral formation
Pulp vitality [4]: dental pulp remained vital
Histology of reparative dentine formation ([6]; 4 weeks): dense dentine formation at the injury site with vital pulp
Histology of reparative dentine formation ([6]; 6 weeks): filled the whole injury site from occlusal to pulp chamber roof; also recorded: complete repair with vital dental pulp
